# Where two headings read alike, the source gives them in different places.
# Assays:
# Format in all cases: cell-based
# HCT116 colon carcinoma = assay: MTT assay, cell growth inhibition of HCT116 colon carcinoma; conditions: for IC50: MTT, 72 h incubation, mean of three independent experiments ± SD, IC50 > 50 means inhibition <20% at 50 μM; for cytotoxicity against HCT116 (in words): 10, 25 and 50 μM, 72 h
# Experimental: (§1) All conjugated compounds prepared via click chemistry and listed in Table 1 were evaluated in vitro for their cytotoxic activity against K562 leukemia cells and the colon cancer cell line HCT116. Normal human skin fibroblast cells were chosen as a control and cisplatin served as a reference compound. The cytotoxicity was evaluated using the MTT assay (details are reported in the Materials and Methods section). In all experiments the cell growth inhibition of K562 and HCT116 was determined for each compound at concentrations of 10, 25 and 50 μM after 72 h of treatment and up to 100 μM in the case of fibroblasts.
# (§2) Cell growth inhibition assays were carried out using the leukemia cell line K562 and colon carcinoma HCT116. Cell lines were obtained from ATCC (Manassas, VA, USA) and maintained in RPMI 1640, supplemented with 10% fetal bovine serum (FBS), penicillin (100 Units mL^−1), streptomycin (100 μg mL^−1) and glutamine (2 mM) (complete medium); the pH of the medium was 7.2 and the incubation was performed at 37 °C in a 5% CO2 atmosphere. Adherent cells were routinely used at 70% of confluence and passaged every 3 days by treatment with 0.05% Trypsin-EDTA (Lonza, Walkersville, MD, USA). K562 cells were routinely fed every 3 days.
# (§3) The antiproliferative activity of the compounds was tested using the 3-(4,5-dimethylthiozol-2-yl)2,5-diphenyltetrazolium bromide solution (MTT) assay. K562 and HCT116 were seeded in triplicate in 96-well trays respectively at the density of 5 × 10^3 and 10^4 in 50 μL of complete medium. Stock solutions (50 mM) of each compound were made in DMSO and diluted in complete medium to give final concentrations of 50, 25 and 10 μM. Untreated cells were placed in every plate as a negative control. The cells were exposed to the compounds, in 100 μL total volume, for 72 h.
# [1] = system: Normal human skin fibroblast cells; assay: MTT assay, cytotoxicity on normal fibroblasts (control); conditions: up to 100 μM; for IC50: MTT, 72 h incubation, mean of three independent experiments ± SD, IC50 > 100 means inhibition <10% at 100 μM, read-out: IC50 FIBRO
# Experimental: as §1, §3
# K562 leukemia cells = assay: MTT assay, cell growth inhibition of K562 leukemia cells; conditions: for IC50: MTT, 72 h incubation, mean of three independent experiments ± SD, IC50 > 50 means inhibition <20% at 50 μM, read-out: IC50 K562; for cytotoxicity against K562 (in words): 10, 25 and 50 μM, 72 h
# Experimental: as §1, §2, §3
# [2] = Homo sapiens, Skin fibroblast, 72 h
SMILES,"IC50 (HCT116 colon carcinoma; Homo sapiens, HCT-116, 72 h) [µM]","IC50 [1, 2] [µM]","IC50 (K562 leukemia cells; Homo sapiens, K562, 72 h) [µM]",IC50 (HCT116 colon carcinoma) [µM],IC50 [1] [µM],IC50 (K562 leukemia cells) [µM],cytotoxicity against HCT116 (in words) (HCT116 colon carcinoma),cytotoxicity towards fibroblast cells (in words) ([1]; 72 h),cytotoxicity against K562 (in words) (K562 leukemia cells)
COC(=O)CCC(C)[C@H]1CCC2C3C(CC[C@@]21C)[C@@]1(C)CC[C@@H](n2cc(CCCCC#Cc4cn([C@H]5C[C@H](O)[C@@H](CO)O5)c(=O)[nH]c4=O)nn2)CC1C[C@H]3O (some centres unmarked) [dU-CDC],> 50,> 100,> 50,–,–,–,–,–,–
CC(CCC(=O)NCCS(=O)(=O)O)[C@H]1CCC2C3C(CC[C@@]21C)[C@@]1(C)CC[C@@H](n2cc(CCCCC#Cc4nc5c(N)ncnc5n4[C@H]4C[C@H](O)[C@@H](CO)O4)nn2)CC1C[C@@H]3O (some centres unmarked) [dA-TUDCA],> 50,> 100,> 50,–,–,–,–,–,–
CC(CCn1cc(CCCCC#Cc2cn([C@H]3C[C@H](O)[C@@H](CO)O3)c(=O)[nH]c2=O)nn1)[C@H]1CCC2C3C(CC[C@@]21C)[C@@]1(C)CC[C@@H](O)CC1C[C@H]3O (some centres unmarked) [dU-nor-CDC],> 50,> 100,42.9 ± 1.9,–,–,–,–,–,–
CC(CCC(=O)NCCS(=O)(=O)O)C1CCC2C3C(O)CC4CC(n5cc(CCCCC#Cc6nc7c(N)ncnc7n6C6OC(CO)C(O)C6O)nn5)CCC4(C)C3CCC12C (centres unmarked) [A-TUDCA],> 50,> 100,> 50,–,–,–,–,–,–
COC(=O)CCC(C)C1CCC2C3C(O)CC4CC(n5cc(CCCCC#Cc6nc7c(N)ncnc7n6C6OC(CO)C(O)C6O)nn5)CCC4(C)C3CCC12C (centres unmarked) [A-UDC],–,–,–,> 50,> 100,> 50,–,–,–
COC(=O)CCC(C)[C@H]1CCC2C3C(CC[C@@]21C)[C@@]1(C)CC[C@@H](n2cc(CCCCC#Cc4nc5c(=O)[nH]c(N)nc5n4[C@H]4C[C@H](O)[C@@H](CO)O4)nn2)CC1C[C@H]3O (some centres unmarked) [dG-CDC],> 50,> 100,> 50,–,–,–,–,–,–
CC(CCn1cc(CCCCC#Cc2nc3c(=O)[nH]c(N)nc3n2[C@H]2C[C@H](O)[C@@H](CO)O2)nn1)[C@H]1CCC2C3C(CC[C@@]21C)[C@@]1(C)CC[C@@H](O)CC1C[C@H]3O (some centres unmarked) [dG-nor-CDC],> 50,> 100,> 50,–,–,–,–,–,–
"COC(=O)CC[C@@H](C)[C@H]1CC[C@H]2[C@@H]3[C@@H](O)C[C@@H]4C[C@H](N=[N+]=[N-])CC[C@]4(C)[C@H]3CC[C@]12C [3α-N3-UDC, methyl 3α-azido-7β-hydroxy-5β-cholan-24-oate]",22 ± 1.5,> 100,25 ± 1,–,–,–,active,not active,active
"CC(CCN=[N+]=[N-])[C@H]1CCC2C3C(CC[C@@]21C)[C@@]1(C)CC[C@@H](O)CC1C[C@@H]3O (stereo partly drawn) [23-N3-nor-UDC, 3α,7β-Dihydroxy-5β-23-azido-24-norcholane]",22 ± 1.4,81 ± 2,15 ± 1,–,–,–,–,–,–
COC(=O)CCC(C)[C@H]1CCC2C3C(CC[C@@]21C)[C@@]1(C)CC[C@@H](n2cc(CCCCC#Cc4cn([C@H]5C[C@H](O)[C@@H](CO)O5)c(=O)[nH]c4=O)nn2)CC1C[C@@H]3O (some centres unmarked) [dU-UDC],≤ 25,~100,≤ 25,23.5 ± 1.6,91.5 ± 4.5,21.5 ± 2,–,–,–
"C#CCCCCC#Cc1nc2c(N)ncnc2n1[C@@H]1O[C@H](CO)[C@@H](O)[C@H]1O [ALK-A, 8-(1,7-Octadynyl)-adenosine]",> 50,> 100,> 50,–,–,–,–,–,–
"COC(=O)CC[C@@H](C)[C@H]1CC[C@H]2[C@@H]3[C@H](O)C[C@@H]4C[C@H](N=[N+]=[N-])CC[C@]4(C)[C@H]3CC[C@]12C [3α-N3-CDC, methyl 3α-azido-7α-hydroxy-5β-cholan-24-oate]",31 ± 2.3,> 100,23 ± 2,–,–,–,active,not active,active
CC(CCC(=O)NCCS(=O)(=O)O)[C@H]1CCC2C3C(CC[C@@]21C)[C@@]1(C)CC[C@@H](n2cc(CCCCC#Cc4cn([C@H]5C[C@H](O)[C@@H](CO)O5)c(=O)[nH]c4=O)nn2)CC1C[C@@H]3O (some centres unmarked) [dU-TUDCA],> 50,> 100,–,–,–,–,–,–,–
